The values below come from article PMC10063614, “Turning universal O into rare Bombay type blood” (Nature Communications, 2023).

The target of this assay is T1, FucOB (Amuc_1120), α-1,2-L-Fucosidase O to Bombay (Akkermansia muciniphila, UniProt B2UR61).
T1 construct: signal peptide (residues 1-23) removed, additional N-terminal 17-residue peptide with His tag; pET29a, E. coli BL21(DE3); monomer in crystal
Description: released fucose by L-fucose dehydrogenase/NADPH assay. The note with it: 20 mM Tris-HCl pH 6.8, 37 °C, 30 min; enzyme:substrate 1:100,000. The format is biochemical.

T1 sequence (B2UR61 entry or part of it): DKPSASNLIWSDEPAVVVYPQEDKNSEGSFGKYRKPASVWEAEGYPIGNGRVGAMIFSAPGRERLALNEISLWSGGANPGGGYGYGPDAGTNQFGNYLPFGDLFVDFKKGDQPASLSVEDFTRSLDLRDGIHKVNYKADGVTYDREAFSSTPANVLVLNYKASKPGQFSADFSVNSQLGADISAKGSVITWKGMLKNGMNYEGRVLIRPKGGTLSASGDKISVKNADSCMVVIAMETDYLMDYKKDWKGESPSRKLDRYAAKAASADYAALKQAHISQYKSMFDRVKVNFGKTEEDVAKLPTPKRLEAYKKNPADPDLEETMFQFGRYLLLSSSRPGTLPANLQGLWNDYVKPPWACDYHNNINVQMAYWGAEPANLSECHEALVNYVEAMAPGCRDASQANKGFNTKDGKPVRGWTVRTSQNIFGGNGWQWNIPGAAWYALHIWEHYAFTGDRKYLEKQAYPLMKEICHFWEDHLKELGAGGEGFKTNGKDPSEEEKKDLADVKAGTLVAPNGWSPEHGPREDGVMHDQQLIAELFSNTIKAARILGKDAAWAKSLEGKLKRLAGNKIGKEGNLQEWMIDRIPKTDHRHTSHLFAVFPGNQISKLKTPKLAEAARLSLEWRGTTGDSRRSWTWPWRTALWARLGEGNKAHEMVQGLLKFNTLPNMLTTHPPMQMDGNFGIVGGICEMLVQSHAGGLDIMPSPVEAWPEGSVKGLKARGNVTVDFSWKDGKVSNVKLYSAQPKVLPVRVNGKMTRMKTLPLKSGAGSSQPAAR

Regarding `C[C@@H]1O[C@@H](O[C@H]2[C@H](O[C@H]3[C@H](O)[C@@H](O)C(O)O[C@@H]3CO)O[C@H](CO)[C@H](O)[C@@H]2O)[C@@H](O)[C@H](O)[C@@H]1O` (some centres unmarked) [2’-fucosyllactose], the “released fucose by L-fucose dehydrogenase/NADPH assay” value is “FucOB hydrolyzes all three types of H antigen structures to obtain the afucosylated Bombay phenotype”.
For the molecule `CC(=O)N[C@H]1C(O)O[C@H](CO)[C@@H](O[C@@H]2O[C@H](CO)[C@H](O)[C@H](O)[C@H]2O[C@@H]2O[C@@H](C)[C@@H](O)[C@@H](O)[C@@H]2O)[C@@H]1O` (some centres unmarked) [blood group H antigen triaose type II], the “released fucose by L-fucose dehydrogenase/NADPH assay” value is given as “FucOB hydrolyzes all three types of H antigen structures to obtain the afucosylated Bombay phenotype”.
